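Growth conditions: 96-well plates. Treatment: test compound, 48 hours, 5 concentrations. Analysis: linear interpolation between bracketing concentrations; unreached endpoints set to highest concentration. The concentration for 50% growth inhibition is given as GI50.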 Active and inactive are the calls of the source. Rule as the data show it: active = GI50 up to about 1.1 µM and inactive = higher.
Key:
Assay in all cases: NCI-60 cell line screen, 48 h
ACHN = tested on: ACHN
HL-60 = tested on: HL-60
RXF 393 = tested on: RXF 393
SNB-19 = tested on: SNB-19
SF-295 = tested on: SF-295
T47D = tested on: T47D
DU-145 = tested on: DU-145
TK-10 = tested on: TK-10
PC-3 = tested on: PC-3
SF-539 = tested on: SF-539
K562 = tested on: K562
RPMI-8226 = tested on: RPMI-8226
SK-MEL-5 = tested on: SK-MEL-5
HOP-92 = tested on: HOP-92
HOP-62 = tested on: HOP-62
NCI-H460 = tested on: NCI-H460
HCC 2998 = tested on: HCC 2998
OVCAR-4 = tested on: OVCAR-4
U-251 = tested on: U-251
Hs-578T = tested on: Hs-578T

SMILES	GI50 (ACHN)	GI50 (HL-60)	GI50 (RXF 393)	GI50 (SNB-19)	GI50 (SF-295)	GI50 (T47D)	GI50 (DU-145)	GI50 (TK-10)	GI50 (PC-3)	GI50 (SF-539)	GI50 (K562)	GI50 (RPMI-8226)	GI50 (SK-MEL-5)	GI50 (HOP-92)	GI50 (HOP-62)	GI50 (NCI-H460)	GI50 (HCC 2998)	GI50 (OVCAR-4)	GI50 (U-251)	GI50 (Hs-578T)
Cc1nc(=O)[nH]c(NCCNCCO)c1C(=O)Nc1cccc2cc3ccccc3cc12	> 100 µM (inactive)	> 100 µM (inactive)	> 100 µM (inactive)	> 100 µM (inactive)	> 100 µM (inactive)	> 100 µM (inactive)	> 100 µM (inactive)	> 100 µM (inactive)	> 100 µM (inactive)	> 100 µM (inactive)	> 100 µM (inactive)	> 100 µM (inactive)	> 100 µM (inactive)	> 100 µM (inactive)	> 100 µM (inactive)	> 100 µM (inactive)	> 100 µM (inactive)	> 100 µM (inactive)	> 100 µM (inactive)	> 100 µM (inactive)
COc1cccc(-c2cc(=O)c3ccc(C)nc3[nH]2)c1	0.0538 µM (active)	0.0212 µM (active)	0.0274 µM (active)	0.0592 µM (active)	0.0371 µM (active)	57.9 µM (inactive)	0.0824 µM (active)	> 100 µM (inactive)	0.0361 µM (active)	0.0388 µM (active)	0.0232 µM (active)	0.034 µM (active)	0.036 µM (active)	0.0401 µM (active)	0.0904 µM (active)	0.0451 µM (active)	0.0715 µM (active)	3.78 µM (inactive)	0.0508 µM (active)	0.0687 µM (active)
Cc1csc(CP(=O)(OC(C)C)OC(C)C)n1	> 100 µM (inactive)	> 100 µM (inactive)	> 100 µM (inactive)	> 100 µM (inactive)	> 100 µM (inactive)	> 100 µM (inactive)	> 100 µM (inactive)	> 100 µM (inactive)	> 100 µM (inactive)	> 100 µM (inactive)	> 100 µM (inactive)	> 100 µM (inactive)	> 100 µM (inactive)	> 100 µM (inactive)	> 100 µM (inactive)	> 100 µM (inactive)	> 100 µM (inactive)	> 100 µM (inactive)	> 100 µM (inactive)	> 100 µM (inactive)
COc1ccc2c(c1OC)C[C@@H]1c3c(cc4c(c3-2)OCO4)CCN1C	27.5 µM (inactive)	8.63 µM (inactive)	20.5 µM (inactive)	42.9 µM (inactive)	15.6 µM (inactive)	28.8 µM (inactive)	41.1 µM (inactive)	25 µM (inactive)	17.5 µM (inactive)	19 µM (inactive)	20.3 µM (inactive)	18.5 µM (inactive)	16.7 µM (inactive)	12.3 µM (inactive)	72.8 µM (inactive)	32.1 µM (inactive)	21.3 µM (inactive)	25.4 µM (inactive)	26.9 µM (inactive)	34.4 µM (inactive)
N#Cc1c(-c2ccc([N+](=O)[O-])cc2)cc(-c2ccc(Nc3ccnc4cc(Cl)ccc34)cc2)nc1N	30.5 µM (inactive)	12.4 µM (inactive)	17.4 µM (inactive)	25.2 µM (inactive)	19 µM (inactive)	4.81 µM (inactive)	11 µM (inactive)	25.9 µM (inactive)	6.49 µM (inactive)	31.1 µM (inactive)	4.56 µM (inactive)	5.02 µM (inactive)	25.9 µM (inactive)	29.7 µM (inactive)	9.46 µM (inactive)	7.24 µM (inactive)	11.4 µM (inactive)	2.82 µM (inactive)	1.84 µM (inactive)	11.6 µM (inactive)
c1ccc2c(c1)N=c1ccccc1=P21c2ccccc2Nc2ccccc21	2.4 µM (inactive)	0.186 µM (active)	0.438 µM (active)	0.325 µM (active)	0.942 µM (active)	0.192 µM (active)	0.388 µM (active)	0.998 µM (active)	0.242 µM (active)	0.619 µM (active)	0.202 µM (active)	0.156 µM (active)	0.188 µM (active)	0.332 µM (active)	0.908 µM (active)	0.186 µM (active)	0.598 µM (active)	0.601 µM (active)	0.366 µM (active)	0.382 µM (active)
CC(=O)[C@@H](C)C(=O)N1C(=O)OC[C@@]12[C@@H]1CC[C@@H](C1)C2(C)C	> 100 µM (inactive)	> 100 µM (inactive)	> 100 µM (inactive)	> 100 µM (inactive)	> 100 µM (inactive)	> 100 µM (inactive)	> 100 µM (inactive)	> 100 µM (inactive)	> 100 µM (inactive)	> 100 µM (inactive)	> 100 µM (inactive)	> 100 µM (inactive)	> 100 µM (inactive)	> 100 µM (inactive)	> 100 µM (inactive)	> 100 µM (inactive)	> 100 µM (inactive)	> 100 µM (inactive)	> 100 µM (inactive)	> 100 µM (inactive)
CS(=O)(=O)c1ccc(NNc2cc(=O)[nH]c(=O)[nH]2)cc1	> 100 µM (inactive)	52.7 µM (inactive)	> 100 µM (inactive)	> 100 µM (inactive)	> 100 µM (inactive)	> 100 µM (inactive)	> 100 µM (inactive)	0.0155 µM (active)	> 100 µM (inactive)	> 100 µM (inactive)	> 100 µM (inactive)	> 100 µM (inactive)	> 100 µM (inactive)	47.8 µM (inactive)	> 100 µM (inactive)	> 100 µM (inactive)	> 100 µM (inactive)	> 100 µM (inactive)	> 100 µM (inactive)	> 100 µM (inactive)
C[C@]12CC[C@H]3[C@@H](CC=C4C[C@@H](N5CCCC5)CC[C@@]43C)[C@@H]1C[C@H](N1CCCCC1)[C@@H]2O	> 100 µM (inactive)	28.2 µM (inactive)	> 100 µM (inactive)	> 100 µM (inactive)	> 100 µM (inactive)	> 100 µM (inactive)	> 100 µM (inactive)	> 100 µM (inactive)	> 100 µM (inactive)	39.7 µM (inactive)	16.9 µM (inactive)	26.8 µM (inactive)	51.1 µM (inactive)	83.8 µM (inactive)	> 100 µM (inactive)	> 100 µM (inactive)	31.6 µM (inactive)	> 100 µM (inactive)	> 100 µM (inactive)	> 100 µM (inactive)

— ChEMBL document CHEMBL1201862, “PubChem BioAssay data set” (2004)
